{"source": "patent US20220401385A1", "about": "“Combination Therapy Based on PD-1 Signaling Inhibitors” (Kyoto University, priority 2019, published 2022)", "key": {"MC38 cells": {"system": "MC38 cells", "assay": "MC38 mouse therapy model, tumor growth and survival", "type": "in vivo, C57BL/6 mice", "description": "FIG. 1-1 a) CD8^+ T cells or CD3^+ T cells were isolated from mice, and 2×10^5 cells were stimulated with CD3/CD28 beads in 96-well U plates. After 24 hours and 48 hours, cells and culture supernatant were collected, followed by measurement of spermidine (SPD) concentration by mass spectrometry. […] Ten days after inoculation, PD-L1 antibody (2 mg/kg), PD-L1 antibody+SPD (2 mg/kg), or SPD alone was administered. Subsequently, PD-L1 antibody was administered 4 times at a regular interval of 5 days, and SPD was administered 8 times at a regular interval of 3 days. Tumor growth curve and survival curve are shown. c) Draining lymph nodes (DLNs) of mice were isolated 13 days after tumor inoculation, and stained with antibodies to CD8, CD44 and CD62L. The number of cells in draining lymph node (cells/DLN) in each treatment group is shown at the left side. After being gated, CD8^+ T cells were fractionated with CD44 and CD62L into P1 to P4 cell populations. Percentages and cell numbers of P1 to P4 in each treatment group are shown. d) Tumor was isolated 13 days after tumor inoculation and treated with collagenase. Percentages and numbers per mg tumor of tumor-infiltrating CD8^+ CD45.2^+ cells are shown. For statistical analysis, ANOVA was used. * p<0.05, ** p<0.01, *** p<0.001, **** p<0.0001.\nFIG. 8 MC38 cells (5×10^5) were intradermally inoculated into C57BL/6 mice. Ten days after inoculation, PD-L1 antibody (2 mg/kg), PD-L1 antibody+SPD (2 mg/kg) or PD-L1 antibody+SPM (6 mg/kg) was administered. Subsequently, […] was administered 4 times at a regular interval of 5 days, whereas SPD and SPM were administered 8 times at a regular interval of 3 days. Tumor growth curve is shown.\nMC38 cells (5×10^5) were intradermally injected on the right flank. Ten days after inoculation, PD-L1 antibody (1-111A; prepared by and stored at the Department of Immunology and Genomic Medicine, Graduate School of Medicine, Kyoto University) (Immunology Letters 84 (2002) 57-62) (2 mg/kg), PD-L1 antibody+SPD (2 mg/kg) or SPD alone was administered to mice. Subsequently, PD-L1 antibody was administered 4 times at a regular interval of 5 days, and SPD was administered 8 times at a regular interval of 3 days. Tumors were measured on every alternate day, and tumor volumes were calculated using the formula for typical ellipsoid, π×(length×breadth×height/6)."}, "CD44 low CD8+ T cells": {"system": "CD44 low CD8+ T cells", "assay": "Seahorse OCR, ATP production and SRC in vitro, CD44 low cells", "type": "cell-based, mice", "details": "SPD 0.2 μM", "description": "FIG. 4 CD8^+ T cells were isolated from the spleen of mice without tumor inoculation, and further isolated into CD44^+ (CD44 high) and CD44^− (CD44 low) cell populations. a) CD44 low cells were simulated with CD3/CD28 antibody beads and SPD (0.2 μM). After 30 minutes, 1 hour, 2 hours and 72 hours, OCR was measured with a Seahorse analyzer. b) At the same time, total ATP production and glycolytic pathway-derived or mitochondrial activity-derived ATP production were calculated at 30-minute, 1-hour and 2-hour. c) CD44 low cells (2×10^5 cells) were stimulated with CD3/CD28 antibody beads and SPD (0.2 μM). After 24 hours, cell proliferation was examined by means of 3H uptake. d) Spare respiratory capacity (SRC) was calculated from the OCR measurement after 72 hours in a), and results with and without SPD were compared. e) CD44 low cells were stimulated with CD3/CD28 antibody beads and SPD (0.2 μM). After 24 hours, frequencies between apoptotic and viable cells were calculated by PI and Annexin staining. f-j) CD44 high cells were analyzed under the same conditions and by the same methods as described in a-e) above. As regards statistical analysis, t-test was used for comparison of two groups, and ANOVA was used for comparison of three or more groups. * p<0.05, ** p<0.01, *** p<0.001, **** p<0.0001.\nOxygen consumption rates were measured using an XF96 Extracellular Flux Analyzer (Seahorse Bioscience). CD8^+ T cells (4×10^5) per well were seeded in a determined XF96 plate. The four chemical modulators of mitochondrial oxidative phosphorylation, which came with an XF Cell Mito Stress Test Kit (Seahorse Bioscience), were added to the module sequentially. In brief, basal OCR measurement was performed […] sequential addition of oligomycin, FCCP, and rotenone/antimycin A. SRC and ATP production rates were calculated by the following formulas:\nSRC (pmo; 02/min)=OCRmaximal−OCRbasal\nmitoATP (pmol ATP/min)=(OCRbasal−OCRoligo)×5.5."}, "AMPK and mTOR signaling": {"system": "AMPK and mTOR signaling", "assay": "Western blotting of AMPK and mTOR signaling, CD44 high cells", "type": "cell-based, mice", "details": "SPD 0.2 μM, 1 hour and 2 hours", "description": "FIG. 5 CD8^+ T cells were isolated from the spleen of mice without tumor inoculation, and further isolated into CD44^+ (CD44 high) and CD44^− (CD44 low) cell populations. a) CD44 low cells were simulated with CD3/CD28 antibody beads and SPD (0.2 μM). […] Protein expression levels after 1 hour and 2 hours were confirmed by western blotting with the respective indicated antibodies. As regards statistical analysis, t-test was used for comparison of two groups. * p<0.05, ** p<0.01, *** p<0.001, **** p<0.0001.\nCD8^+ T cells were isolated using mouse CD8 Microbeads (Miltenyi Biotec or Mojo). After washing with PBS twice, 2×10^6 cells were solubilized in a lysis buffer containing 30 mM Tris-HCl (pH. 7.4), 150 mM NaCl, 10% glycerol, 0.1% SDS, 1% Triton-X-100, 0.05% Na-Doc, 5 mM EDTA (pH. 8.0), protease inhibitor mixture (Roche Molecular Biochemicals) and phosphatase inhibitors (Nacalai Tesque). After measurement of protein concentrations by DC protein assay (Bio-Rad), 4 μg of proteins was mounted on 4 to 20% gradient Mini-PROTEAN TGX Gels (Bio-Rad) and electroblotted onto nitrocellulose membranes, which were then incubated in a blocking buffer of TBS containing 1% BSA. Primary antibody incubations were carried out overnight at 4° C. in blocking buffer. After washing, secondary antibody incubations were carried out at room temperature for 40 min in blocking buffer. […]"}}, "note": "Entries after “also recorded” stand apart in the source; their conditions may differ.", "data": [{"smiles": "NCCCCNCCCN", "note": "[SPD, spermidine]", "values": [{"measurement": "antitumor effect of the PD-1 inhibitory antibody", "setting": "MC38 cells; SPD (2 mg/kg) in combination with PD-L1 antibody (2 mg/kg), MC38 in C57BL/6 mice", "value": "synergistically improved; also recorded: greatly enhanced"}, {"measurement": "antitumor effect", "setting": "MC38 cells; spermidine alone, in living bodies", "value": "no antitumor effect"}, {"measurement": "mitochondrial oxygen consumption (OCR)", "setting": "CD44 low CD8+ T cells; 30 minutes, 1 hour, 2 hours and 72 hours after stimulation", "value": "increased"}, {"measurement": "ATP production via glycolytic pathway (glyco ATP)", "setting": "CD44 low CD8+ T cells; 1 hour after stimulation", "value": "significantly high"}, {"measurement": "ATP production via intramitochondrial pathway (mito ATP)", "setting": "CD44 low CD8+ T cells; 1 hour after stimulation", "value": "significantly high"}, {"measurement": "spare respiratory capacity (SRC)", "setting": "CD44 low CD8+ T cells; 72 hours", "value": "enhanced; also recorded: significantly high"}, {"measurement": "expression levels of pAMPK and its downstream molecules (pACC, pPKCa)", "setting": "AMPK and mTOR signaling", "value": "markedly high"}]}]}
